In article PMC3172300, “Modulation of Catalytic Activity in Multi-Domain Protein Tyrosine Phosphatases” (PLoS ONE, 2011):
Several values for one entry are separate records, joined by “and”; a condition that tells them apart may be missing. Equal values may be shown once. Read-outs that look alike come from different tables or passages of the source. Square brackets hold non-standard residues; d marks the D form. Peptide text beside a SMILES is read from it. pY = N[C@@H](Cc1ccc(OP(=O)(O)O)cc1)C(=O)O

Tests used:
DLAR D1 D2HSS [1] = target: T1, DLAR D1 D2HSS (Drosophila melanogaster, UniProt P16621, C1961S); assay: Surface Plasmon Resonance peptide binding, DLAR D1 D2HSS; conditions: two-site model, read-out: ka
T1 construct: DLAR 1448-2029; His tag (pET-15b or pET-22b); made in house; host or cells: E. coli BL21(DE3)
Description: The binding of phosphotyrosine peptides to the PTP domains was studied by Surface Plasmon Resonance on a Biacore-2000 instrument (BIAcore, AB). All experiments were conducted at 25°C. DLAR PTP domains were immobilized onto carboxylated dextran CM5 chips (BIAcore AB) using the standard amine coupling procedure as recommended by the manufacturer. Binding and kinetic assays were performed in 10 mM HEPES, pH 8.0, 150 mM NaCl, 10 mM DTT and 3 mM EDTA at a flow rate of 5 µL/min. The peptides were used at concentrations ranging from 50–700 µM. Dissociation was initiated by replacing the analyte with buffer. The association and dissociation curves were monitored for 600 sec. Sensograms were analyzed with BIA-evaluation software version 2 (BIAcore AB). Sensograms for DLAR D1D2, DLAR D1HSSD2 and DLAR D1D2HSS were fitted to two-site binding equations. DLAR D1 and DLAR D2 sensograms were fitted using a single-site binding model.

DLAR D1 D2HSS [2] = target: T1, DLAR D1 D2HSS; assay: Phosphatase assay using pNPP, DLAR D1 D2HSS; assay type: biochemical; conditions: CGH buffer pH 6.5, 100 mM NaCl, 2 mM DTT
Description: (§1) Phosphatase activity of the recombinant PTP domains was determined by using para-Nitrophenylphosphate (pNPP), a small molecule generic substrate, as well as phosphotyrosine containing peptides. The pNPP assay was performed as reported previously, with a modification in the buffer composition (25 mM Citrate, Glycine and HEPES (CGH), pH 6.5, 100 mM NaCl and 2 mM DTT). Phosphatase activity with the phosphotyrosine peptides was ascertained by the malachite green reaction as described for PTPs previously. Briefly, the reaction mixture comprised of 0.01 µM protein incubated with increasing concentrations of different peptides in 25 mM citrate buffer pH 6.0, 100 mM NaCl and 2 mM DTT for 15 min at 25°C. The reaction was stopped by the addition of the Biomol Green reagent (Enzo Life Sciences) and the colour developed after 20 min was quantified at 650 nm. For all the assays, kinetic constants for the steady state catalysis were obtained by fitting the reaction curves to the Michaelis-Menten equation using the nonlinear regression module of Sigma plot software (Systat Software, Inc.).
(§2) The tandem PTP domains of PTP99A (PTP99A D1D2) and DLAR (DLAR D1D2) , the individual PTP domains (D1 and D2) as well as the active site mutants were expressed in E. coli and were purified using the protocols described earlier (Figure 1a, Figure S1a, b & c). The biochemical characterization and catalytic activity measurements were performed using pNPP as a substrate. […] Thus the D2 domain appears to have a regulatory role in both RPTPs- decreasing the catalytic activity in the case of DLAR while increasing the catalytic activity in the case of PTP99A (Figure 1b).

DLAR D1D2 = target: T2, DLAR D1D2 (Drosophila melanogaster, UniProt P16621); assay: Phosphatase assay using pNPP, DLAR D1D2; assay type: biochemical; conditions: 2 mM DTT
T2 construct: DLAR 1448-2029; His tag (pET-15b or pET-22b); made in house; host or cells: E. coli BL21(DE3)
T2 sequence (P16621 1448-2029): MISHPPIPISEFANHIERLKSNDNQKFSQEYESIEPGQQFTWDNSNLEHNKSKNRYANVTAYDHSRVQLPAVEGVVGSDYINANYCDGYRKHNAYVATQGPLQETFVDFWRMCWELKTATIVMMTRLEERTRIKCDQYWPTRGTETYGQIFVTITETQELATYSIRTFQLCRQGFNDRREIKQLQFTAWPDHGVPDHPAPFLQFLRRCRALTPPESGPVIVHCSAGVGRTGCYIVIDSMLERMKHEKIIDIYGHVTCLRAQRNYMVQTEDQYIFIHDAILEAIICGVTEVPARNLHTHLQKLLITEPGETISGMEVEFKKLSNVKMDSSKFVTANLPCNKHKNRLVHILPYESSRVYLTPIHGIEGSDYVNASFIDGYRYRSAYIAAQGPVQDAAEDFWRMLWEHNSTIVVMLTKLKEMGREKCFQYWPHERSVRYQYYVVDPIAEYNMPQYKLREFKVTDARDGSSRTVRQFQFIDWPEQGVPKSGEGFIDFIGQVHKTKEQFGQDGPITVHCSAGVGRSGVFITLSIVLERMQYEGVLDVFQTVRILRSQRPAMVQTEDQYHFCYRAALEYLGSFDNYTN
Description: as §1, §2

PTP99A D2 = target: T3, PTP99A D2 (Drosophila melanogaster, UniProt P35832); assay: Phosphatase assay using pNPP, PTP99A D2; assay type: biochemical; conditions: CGH buffer pH 6.5
T3 sequence (P35832 740-1050): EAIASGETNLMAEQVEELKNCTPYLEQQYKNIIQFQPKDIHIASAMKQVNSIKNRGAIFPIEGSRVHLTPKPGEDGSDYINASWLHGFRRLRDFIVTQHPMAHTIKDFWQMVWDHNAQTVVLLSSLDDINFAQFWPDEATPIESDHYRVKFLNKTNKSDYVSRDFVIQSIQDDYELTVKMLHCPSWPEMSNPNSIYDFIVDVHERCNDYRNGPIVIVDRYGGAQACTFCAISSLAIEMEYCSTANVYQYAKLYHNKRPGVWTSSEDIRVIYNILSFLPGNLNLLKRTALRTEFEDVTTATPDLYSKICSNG
Description: as §1

T1 sequence (P16621 1448-2029 C1961S): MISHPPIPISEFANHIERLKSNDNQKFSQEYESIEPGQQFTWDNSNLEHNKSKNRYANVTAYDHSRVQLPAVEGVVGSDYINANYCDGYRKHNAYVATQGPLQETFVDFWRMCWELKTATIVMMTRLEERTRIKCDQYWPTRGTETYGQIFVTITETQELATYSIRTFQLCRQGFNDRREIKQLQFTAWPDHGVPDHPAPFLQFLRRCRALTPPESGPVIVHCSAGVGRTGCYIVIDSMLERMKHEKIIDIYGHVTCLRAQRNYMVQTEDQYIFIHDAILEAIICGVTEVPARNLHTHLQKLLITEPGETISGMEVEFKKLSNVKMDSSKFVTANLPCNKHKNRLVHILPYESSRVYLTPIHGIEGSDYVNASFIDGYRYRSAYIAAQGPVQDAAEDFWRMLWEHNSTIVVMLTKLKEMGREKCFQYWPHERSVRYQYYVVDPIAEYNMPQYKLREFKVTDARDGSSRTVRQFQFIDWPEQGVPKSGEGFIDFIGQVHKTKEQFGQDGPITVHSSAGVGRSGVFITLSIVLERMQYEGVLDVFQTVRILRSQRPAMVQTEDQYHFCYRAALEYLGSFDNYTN

Compound	kon (DLAR D1 D2HSS [1]; pH 8, SPR Biacore-2000, 25°C, 10 mM HEPES pH 8.0, 150 mM NaCl, 10 mM DTT, 3 mM EDTA, peptides 50–700 µM, first binding site)	kon (DLAR D1 D2HSS [1]; pH 8, SPR, 25°C, pH 8.0, second binding site)	Kcat (DLAR D1 D2HSS [2])	Kcat/Km (DLAR D1 D2HSS [2])	Vmax (DLAR D1 D2HSS [2]; Michaelis-Menten fit)	Vmax (DLAR D1D2; 25 mM Citrate, Glycine and HEPES (CGH), pH 6.5, 100 mM NaCl, Michaelis-Menten fit)	Kcat (DLAR D1D2; CGH buffer pH 6.5, 100 mM NaCl)	Kcat/Km (DLAR D1D2; CGH buffer pH 6.5, 100 mM NaCl)	PTPase activity (PTP99A D2)
CC(C)C[C@H](NC(=O)[C@H](C)NC(=O)CNC(=O)[C@H](Cc1ccc(OP(=O)(O)O)cc1)NC(=O)[C@H](CC(=O)O)NC(=O)[C@@H]1CCCN1C(=O)[C@H](CCC(=O)O)NC(=O)[C@H](C)NC(=O)[C@@H](N)[C@@H](C)O)C(=O)N[C@@H](Cc1ccc(O)cc1)C(=O)N[C@@H](CCC(=O)O)C(=O)O [Cuticle peptide] (H-TAEPD[pY]GALYE-OH)	51.7 ± 0.61 M⁻¹ s⁻¹	1.37 ± 0.4 M⁻¹ s⁻¹							
O=[N+]([O-])c1ccc(OP(=O)(O)O)cc1 [pNPP, para-Nitrophenylphosphate]			6.49 ± 0.17 s⁻¹	1.97 ± 0.10 x 10^3 sec^-1M^-1	5.84 ± 0.15 µmol/min/mg	6.19 µmol/min/mg and 6.19 ± 0.14 µmol/min/mg	6.88 ± 0.16 s⁻¹	3.23 ± 0.09 x 10^3 sec^-1M^-1	no detectable activity
